Laboratory results published in ChEMBL document CHEMBL1201862, “PubChem BioAssay data set” (2004).
The source made the active and inactive calls.

What was measured:
X-box-binding protein 1 = X-box-binding protein 1 (Homo sapiens, UniProt P17861); assay type: functional, Cricetulus griseus;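 also: confirmatory dose-response counter-screen serving a CHOP assay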
[1] = Vero E6 cell cytotoxicity, dose response, cytotoxicity control for non-replicating M. tuberculosis project, secondary assay (AID 492998); assay type: functional, VeroE6; details: Vero C1008
[2] = biological target: DNA damage-inducible transcript 3 protein (Mus musculus, UniProt P35639); assay type: functional, Cricetulus griseus
Prothrombin = Prothrombin (Bos taurus, UniProt P00735); experiment: thrombin inhibition, dose response, biochemical, fluorescence polarization, uHTS hits (AID 602369); assay type: functional
[3] = biological target: T1, Delta-type opioid receptor (Homo sapiens, UniProt P41143); experiment: HTS Image-Based Screen for Agonists of the DOR Receptor. [Related pubchem assays (depositor defined):AID1777, AID1786, AID2133]; assay type: functional
[4] = biological target: T2, Kappa-type opioid receptor (Homo sapiens, UniProt P41145); assay type: functional
[5] = inhibitors of firefly luciferase expression or activity, dose response, H4 neuroglioma cells, luminescence (AID 1990); assay type: functional, cell-based
Mu-type opioid receptor = Mu-type opioid receptor (Homo sapiens, UniProt P35372); experiment: HTS Image-Based Screen for Agonists of the MOR Receptor. [Related pubchem assays (depositor defined):AID1777, AID1785, AID1786, AID2133]; assay type: functional;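 also: imaging of beta-arrestin GFP recruitment into spots after receptor activation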
[6] = Luminescence Cell-Based Dose Response HTS to Identify Inhibitors of 5'UTR Stem-Loop Driven Prion Protein mRNA Translation in H4 Neuroglioblastoma Cells. [Related pubchem assays: 1827 (Project Summary), 1813 (Primary HTS)]; assay type: functional
[7] = MDA-MB-231 cell growth inhibition, dose response, cytotoxicity control for RAD54 inhibitor project, CellTiter-Glo luminescence, cherry-pick (AID 651692); assay type: functional, cell-based
[8] = biological target: DNA repair and recombination protein RAD54-like (Homo sapiens, UniProt Q92698); experiment: inhibitors of human RAD54 branch migration, confirmation, biochemical, fluorescence, cherry-picked samples, dose series (AID 651657); assay type: functional
BJ [9] = experiment: cells; assay type: functional, cell-based; details: Homo sapiens
[10] = biological target: T1, Delta-type opioid receptor; experiment: HTS Image-Based Screen for Antagonists of the DOR Receptor. [Related pubchem assays (depositor defined):AID1777, AID1785, AID1786, AID2133]; assay type: functional
cells [11] = assay type: functional
BJ [12] = experiment: cytotoxicity toward BJ-TERT-LT-ST fibroblasts, dose response, cell-based, RAS-independent, luminescence (AID 1935); assay type: functional; details: Homo sapiens;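 also: BJ fibroblasts immortalized with TERT plus LT and ST oncogenes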
[13] = biological target: T2, Kappa-type opioid receptor; assay type: functional; remark: listed apart in the source
[14] = cytotoxicity toward DRD oncogenic fibroblasts, dose response, cell-based, non-viral oncogenic, luminescence (AID 1934); assay type: functional; details: Homo sapiens
[15] = inhibitors of SNCA 5'UTR-driven reporter translation, confirmation, H4 neuroglioma cells, luminescence (AID 1988); assay type: functional, cell-based
BJ [16] = experiment: cytotoxicity toward BJ-TERT fibroblasts, dose response, cell-based, RAS-independent, luminescence (AID 1933); assay type: functional; details: Homo sapiens
[17] = HepG2 cell cytotoxicity, dose response, cytotoxicity control for non-replicating M. tuberculosis project (AID 489018); assay type: functional; details: Mycobacterium tuberculosis
[18] = biological target: 26S proteasome non-ATPase regulatory subunit 14 (Homo sapiens, UniProt O00487); experiment: inhibition of proteasome subunit RPN11 – biochemical, fluorescence polarization, uHTS hits, confirmation (AID 602368); assay type: functional
[19] = biological target: 72 kDa type IV collagenase (Homo sapiens, UniProt P08253); experiment: Dose Response validation of uHTS RPN11 inhibitor hits using a MMP-2 Fluorescence assay.; assay type: functional
[20] = THP-1 cell cytotoxicity, dose response, cytotoxicity control for non-replicating M. tuberculosis project (AID 489025); assay type: functional
INS1 = experiment: beta cell apoptosis inhibitors, cytokine rescue, dose response, luminescence, retest (AID 449756); assay type: functional, cell-based; details: Rattus norvegicus;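 also: cell death triggered by IL-1 beta plus TNF-alpha plus IFN-gamma mixture; protective hits raise ATP signal compared with cytokine alone wells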
[21] = Luminescence Cell-Based Dose Response HTS to Identify Activators of 5'UTR Stem-Loop Driven Prion Protein mRNA Translation in H4-C Neuroglioblastoma Cells. [Related pubchem assays: 1829 (Project Summary), 1814 (Primary HTS)]; assay type: functional
cells [22] = assay type: functional, cell-based
[23] = Luminescence Cell-Based Dose Response HTS to Identify Activators of Luciferase Translation or Activity in H4-C Neuroglioblastoma Cells. [Related pubchem assays: 1829 (Project Summary), 1814 (Primary HTS)]; assay type: functional
[24] = luciferase reporter signal reduction – luminescence, H4-C neuroglioblastoma cells, dose response (AID 2458); assay type: functional, cell-based;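 also: H4 neuroglioblastoma cells stably carrying a luciferase reporter gene fusion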
[25] = inhibitors of SNCA 5'UTR-driven translation, confirmation, luminescence, H4 neuroglioblastoma cells, dose confirmation (AID 2454); assay type: functional, cell-based;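 also: H4 neuroglioblastoma cells carrying an alpha-synuclein 5'UTR luciferase reporter; potency for inhibition of the luciferase signal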
[26] = Luminescence Cell-Based Dose Response HTS to Identify Inhibitors of Luciferase Translation or Activity in H4-C Neuroglioblastoma Cells. [Related pubchem assays: 1813 (Primary HTS), 1827 (Project Summary)]; assay type: functional
[27] = Luminescence Cell-Based Dose Confirmation HTS to Identify Inhibitors of 5'UTR Stem-Loop Driven Alpha-Synuclein mRNA Translation in H4 Neuroglioblastoma Cells. [Related pubchem assays: 1827 (Project Summary), 1813 (Primary HTS)]; assay type: functional
[28] = Luminescence Cell-Based Dose HTS Response to Identify Inhibitors of 5'UTR Stem-Loop Driven Prion Protein mRNA Translation in H4-C Neuroglioblastoma Cells. [Related pubchem assays (depositor defined):AID1814, AID1827]; assay type: functional
[29] = Luminescence Cell-Based Dose Retest to Confirm Activators of 5'UTR Stem-Loop Driven Alpha-Synuclein mRNA Translation in H4 Neuroglioblastoma Cells. [Related pubchem assays (depositor defined):AID1813, AID1829]; assay type: functional

T1 sequence (P41143 whole entry): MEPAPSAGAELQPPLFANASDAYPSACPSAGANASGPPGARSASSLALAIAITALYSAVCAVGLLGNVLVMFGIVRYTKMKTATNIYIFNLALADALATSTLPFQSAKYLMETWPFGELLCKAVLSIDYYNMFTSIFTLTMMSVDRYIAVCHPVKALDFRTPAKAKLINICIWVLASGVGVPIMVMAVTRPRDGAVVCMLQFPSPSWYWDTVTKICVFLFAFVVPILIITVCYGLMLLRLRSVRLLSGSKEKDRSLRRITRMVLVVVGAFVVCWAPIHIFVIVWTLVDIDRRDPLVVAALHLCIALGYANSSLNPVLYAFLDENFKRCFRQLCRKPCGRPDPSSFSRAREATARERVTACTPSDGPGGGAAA
T2 sequence (P41145 whole entry): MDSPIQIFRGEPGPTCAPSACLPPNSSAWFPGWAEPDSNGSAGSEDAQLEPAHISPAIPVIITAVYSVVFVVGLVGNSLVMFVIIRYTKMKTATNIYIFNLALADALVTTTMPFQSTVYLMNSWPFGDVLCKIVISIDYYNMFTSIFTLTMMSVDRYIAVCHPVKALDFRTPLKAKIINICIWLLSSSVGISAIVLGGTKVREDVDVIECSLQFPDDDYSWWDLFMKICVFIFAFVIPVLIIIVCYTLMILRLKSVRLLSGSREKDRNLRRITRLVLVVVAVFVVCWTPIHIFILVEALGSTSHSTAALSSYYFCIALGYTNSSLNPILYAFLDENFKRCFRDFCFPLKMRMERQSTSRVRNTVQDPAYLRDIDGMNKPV
72 kDa type IV collagenase, sequence (P08253 whole entry): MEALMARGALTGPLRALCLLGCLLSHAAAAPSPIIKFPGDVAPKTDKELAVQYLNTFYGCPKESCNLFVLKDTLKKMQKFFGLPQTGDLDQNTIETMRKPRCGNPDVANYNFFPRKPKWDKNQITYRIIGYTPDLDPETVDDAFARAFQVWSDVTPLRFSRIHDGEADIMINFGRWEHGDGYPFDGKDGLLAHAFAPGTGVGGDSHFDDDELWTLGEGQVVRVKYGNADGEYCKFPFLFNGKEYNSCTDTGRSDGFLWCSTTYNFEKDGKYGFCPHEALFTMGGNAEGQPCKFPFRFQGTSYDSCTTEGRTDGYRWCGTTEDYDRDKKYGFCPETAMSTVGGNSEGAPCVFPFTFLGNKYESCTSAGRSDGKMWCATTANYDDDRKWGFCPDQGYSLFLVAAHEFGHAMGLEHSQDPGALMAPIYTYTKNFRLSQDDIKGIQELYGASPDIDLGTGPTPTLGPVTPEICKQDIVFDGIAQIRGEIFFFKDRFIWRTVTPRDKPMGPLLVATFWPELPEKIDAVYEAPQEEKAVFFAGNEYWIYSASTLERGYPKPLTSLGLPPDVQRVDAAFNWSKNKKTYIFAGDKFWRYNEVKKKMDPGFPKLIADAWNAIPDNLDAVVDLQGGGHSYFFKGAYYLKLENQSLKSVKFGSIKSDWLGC
DNA repair and recombination protein RAD54-like, sequence (Q92698 whole entry): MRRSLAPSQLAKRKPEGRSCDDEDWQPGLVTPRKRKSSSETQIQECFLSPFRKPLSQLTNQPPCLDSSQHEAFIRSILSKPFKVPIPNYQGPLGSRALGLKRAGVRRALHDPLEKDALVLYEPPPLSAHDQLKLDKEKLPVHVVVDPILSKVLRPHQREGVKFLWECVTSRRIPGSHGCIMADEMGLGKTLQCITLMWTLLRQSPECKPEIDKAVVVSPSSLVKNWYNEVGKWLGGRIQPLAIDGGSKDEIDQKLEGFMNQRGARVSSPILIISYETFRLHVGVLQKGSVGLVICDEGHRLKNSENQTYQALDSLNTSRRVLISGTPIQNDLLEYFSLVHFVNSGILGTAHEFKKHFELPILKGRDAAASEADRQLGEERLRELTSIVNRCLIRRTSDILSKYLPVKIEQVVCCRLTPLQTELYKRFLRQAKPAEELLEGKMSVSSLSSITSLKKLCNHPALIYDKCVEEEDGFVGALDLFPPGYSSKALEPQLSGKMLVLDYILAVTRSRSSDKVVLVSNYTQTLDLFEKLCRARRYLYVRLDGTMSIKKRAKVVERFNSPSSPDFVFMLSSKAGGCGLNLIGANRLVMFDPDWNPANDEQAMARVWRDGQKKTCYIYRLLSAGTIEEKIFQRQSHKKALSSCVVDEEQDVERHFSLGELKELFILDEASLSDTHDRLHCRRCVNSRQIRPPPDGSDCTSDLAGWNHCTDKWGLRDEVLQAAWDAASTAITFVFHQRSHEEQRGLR
26S proteasome non-ATPase regulatory subunit 14, sequence (O00487 whole entry): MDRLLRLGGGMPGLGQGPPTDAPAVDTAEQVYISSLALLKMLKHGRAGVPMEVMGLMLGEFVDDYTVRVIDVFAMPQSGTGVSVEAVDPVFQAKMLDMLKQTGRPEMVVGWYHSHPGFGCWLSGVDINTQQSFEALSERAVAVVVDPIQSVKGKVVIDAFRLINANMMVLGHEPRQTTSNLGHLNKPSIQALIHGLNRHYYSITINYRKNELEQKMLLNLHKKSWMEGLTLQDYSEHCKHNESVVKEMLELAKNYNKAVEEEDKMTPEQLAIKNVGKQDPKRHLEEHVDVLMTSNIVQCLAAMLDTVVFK
X-box-binding protein 1, sequence (P17861 whole entry): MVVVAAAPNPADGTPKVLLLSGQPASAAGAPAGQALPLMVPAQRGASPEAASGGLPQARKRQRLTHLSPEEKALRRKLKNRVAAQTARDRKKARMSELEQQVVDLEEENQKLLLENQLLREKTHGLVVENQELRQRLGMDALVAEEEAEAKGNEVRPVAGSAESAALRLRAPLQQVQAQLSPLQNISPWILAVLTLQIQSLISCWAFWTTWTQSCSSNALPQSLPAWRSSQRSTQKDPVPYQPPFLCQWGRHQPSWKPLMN
DNA damage-inducible transcript 3 protein, sequence (P35639 whole entry): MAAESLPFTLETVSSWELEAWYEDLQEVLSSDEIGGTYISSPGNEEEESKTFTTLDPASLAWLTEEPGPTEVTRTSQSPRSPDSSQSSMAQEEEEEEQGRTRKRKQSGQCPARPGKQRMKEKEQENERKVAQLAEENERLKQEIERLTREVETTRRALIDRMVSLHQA
Mu-type opioid receptor, sequence (P35372 whole entry): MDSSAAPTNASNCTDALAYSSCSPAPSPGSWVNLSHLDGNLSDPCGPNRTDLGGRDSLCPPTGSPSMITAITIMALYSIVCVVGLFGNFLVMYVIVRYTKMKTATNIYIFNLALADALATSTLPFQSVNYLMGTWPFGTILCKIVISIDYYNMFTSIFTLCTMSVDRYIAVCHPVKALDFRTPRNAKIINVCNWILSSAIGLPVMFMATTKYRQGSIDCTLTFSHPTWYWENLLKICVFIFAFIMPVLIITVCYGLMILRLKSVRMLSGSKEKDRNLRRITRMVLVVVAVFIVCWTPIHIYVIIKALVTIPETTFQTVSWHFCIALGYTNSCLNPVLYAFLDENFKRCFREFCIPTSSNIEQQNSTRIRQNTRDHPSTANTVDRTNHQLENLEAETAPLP

Compound: O=C1NN(c2ccccc2)C(=O)/C1=C/c1ccc(Sc2ccc(Cl)cc2)o1
- Absolute IC50 (XBP1) (X-box-binding protein 1): 10 µM
- CC50 [1]: > 20 µM (active)
- Absolute IC50 (CHOP) [2]: 10 µM

Compound: COc1cc2ccccc2cc1C(=O)Nc1sc2c(c1C(N)=O)CCN(C(C)C)C2
- IC50 (Prothrombin): 15.1 µM (active)
- EC50 [3]: > 32 µM (inactive)
- CC50 [1]: 4.6 µM (active)
- EC50 [4]: 14.8 µM
- EC50 [5]: > 120 µM (not active)
- EC50 (Mu-type opioid receptor): > 32 µM (inactive)
- EC50 [6]: > 120 µM (not active)
- AC50 [7]: 16 µM (active)
- AC50 [8]: 9.33 µM (active)
- EC50 (BJ [9]): 13.6 µM (active)
- IC50 [10]: > 32 µM (inactive)
- IC50 (cells [11]): 11.9 µM (active)
- EC50 (BJ [12]): 6.85 µM (inconclusive)
- EC50 [13]: 2 µM
- EC50 [14]: 7.16 µM (active)
- EC50 [15]: > 120 µM (not active)
- EC50 (BJ [16]): 6.33 µM (active)
- CC50 [17]: 10.8 µM (active)
- IC50 [18]: 18.1 µM (active)
- IC50 [19]: > 100 µM (inactive)
- CC50 [20]: 11.6 µM (active)
- AC50 (INS1): 7.78 µM (active)

Compound: O=C(c1ccc(C[S+]([O-])c2ccccc2Cl)o1)N1CCN(c2ccccc2)CC1 (stereo not given)
- EC50 [21]: 0.464 µM (inconclusive)
- EC50 [5]: 8.01 µM (active)
- EC50 (cells [22]): > 12 µM (not active)
- EC50 (BJ [9]): 25.9 µM (active)
- EC50 [23]: 1.46 µM (inconclusive)
- EC50 [24]: 1.16 µM (active)
- EC50 [25]: 2.83 µM (active)
- EC50 (BJ [12]): 1.22 µM (active)
- EC50 [14]: 0.614 µM (active)
- EC50 [15]: < 0.1 µM (active)
- EC50 [26]: 1.46 µM (active)
- EC50 (BJ [16]): 1.18 µM (active)
- EC50 [27]: 0.811 µM (active)
- EC50 [28]: 0.464 µM (active)
- EC50 [29]: 0.811 µM (inconclusive)
